The procedure of series [1]: A number of experiments were performed to map out the relative stability of Forms I to V. Prior to the relative stability tests, the solids of Forms I, II and III were dried in the oven to remove surface water.
For series [2] the following is noted: RH>90% at room temperature; hydrochloride.
For series [3] the following is noted: 37° C.; for water solubility: hydrochloride. From the text: Hydrocodone benzoic acid enol ester HCl exists in at least 6 distinct solid forms, designated herein as Forms I-V and amorphous. FIG. 1 is a scheme that depicts the general processes for converting hydrocodone benzoic acid enol ester HCl between its polymorphic forms I-V. Each polymorph has different characteristics, including solubility and stability.

Like-named read-outs stand apart in the source and are kept apart here. Bounds are passed on as bounds.

Regarding `COc1ccc2c3c1O[C@H]1C(OC(=O)c4ccccc4)=CC[C@@H]4[C@@H](C2)N(C)CC[C@@]341.Cl` [I + II + III, hydrocodone benzoic acid enol ester hydrochloride], the “Form after 1 day slurry” value in series [1] (solvent Acetonitrile, 25° C.) was “I + traces of II”; in series [1] (solvent IPA, 25° C.), “I + II”; in series [1] (solvent IPA, 50° C.), “I + II”.

In the case of `COc1ccc2c3c1O[C@H]1C(OC(=O)c4ccccc4)=CC[C@@H]4[C@@H](C2)N(C)CC[C@@]341.Cl` [Form III, hydrocodone benzoic acid enol ester hydrochloride], the “stability under high humidity” value in series [2] was “hygroscopic and unstable, and converted to Form V”.

As to `COc1ccc2c3c1O[C@H]1C(OC(=O)c4ccccc4)=CC[C@@H]4[C@@H](C2)N(C)CC[C@@]341.Cl` [Form I, hydrocodone benzoic acid enol ester hydrochloride], the water solubility result in series [3] was “about 24 mg/mL”. The “relative stability of forms in slurry” value in series [1] (in water or organic solvents that contain water) is given as “always the most stable”. For the same compound, the “stability under high humidity” value in series [2] is listed as “stable for at least two weeks”.

As to `COc1ccc2c3c1O[C@H]1C(OC(=O)c4ccccc4)=CC[C@@H]4[C@@H](C2)N(C)CC[C@@]341.Cl` [Form II, hydrocodone benzoic acid enol ester hydrochloride], in series [3], the water solubility is over 200 mg/mL. The “water solubility relative to Form I” value in series [3] (times higher than the solubility of Form I) was determined as 9 times. The “relative stability of forms in slurry” value in series [1] (in anhydrous organic solvents, especially at higher temperatures) is “the more stable one”. Further, the “stability under high humidity” value in series [2] is “hygroscopic and unstable, and converted to Form IV”.

These data come from patent US10870654B2, “Pharmaceutically acceptable salts and polymorphic forms of hydrocodone benzoic acid enol ester and processes for making same” (KemPharm, Inc., priority 2013, dated 2020).
